Assay results: patent US7884116B2, “Octahydronaphthalene derivative and medicine” (Nippon Shinyaku Co., Ltd., priority 2003, dated 2011)
Marks after values point to notes of the source that are not given here.

Legend:
[1] = system: footpad thickness, MeHSA-sensitized C57BL/6 mouse; assay: Methylated human serum albumin-induced delayed hypersensitivity test (MeHSA-DTH); assay type: in vivo; settings: oral, twice, footpad thickness 24 hours after induction
Method: Methylated human serum albumin (MeHSA) was dissolved in physiological saline to 5 mg/ml, which was then mixed with an equal volume of the complete Freund's adjuvant (manufactured by Iatron), to prepare an emulsion. Next, 100 μl of the prepared emulsion was injected subcutaneously into a 8-week-old male C57BL/6 mouse, for antigen sensitization. Seven days thereafter, MeHSA was dissolved in physiological saline to 1 mg/ml, which was injected at 25 μl subcutaneously into the footpad of the right hind limb, to trigger a reaction. The thickness of the footpad was measured 24 hours after the induction of the reaction, to calculate the difference from the thickness thereof before the induction of the reaction, to make an assessment. Additionally, drugs were orally given twice, namely one hour before the induction of the reaction and 16 hours after the induction thereof.

[2] = system: AsPC-1 (human pancreas cancer cell); assay: Test about the suppression of cell growth (MTT); assay type: cell-based; settings: ASPC1, 72 h, AsPC-1, 3 days
Method: (§1) Various cancer cells and normal cell as cultured in a culture broth to 70 to 90% confluency were used. After the culture broth was removed, 0.25% trypsin/1 mM-EDTA solution was added to scrape off the cells and count the cells. Then, a cell suspension of 5×10^4 cells/ml was prepared. The suspension was divided at 90 μl/well into a 96-well plate, and allowed to stand alone in a CO2 incubator. On the next day, (a 0 to 10 μM test drug (the compound of Example 5) was added at 10 μl/well, for gentle shaking for sufficiently mixing the test drug with the liquid culture. After culturing for 3 days, each 10-μl portion of aqueous 5 mg/ml MTT (3-(4,5-dimethylthiazol-2-yl)-2,5-diphenyltetrazolium bromide) solution was added. After culturing in the CO2 incubator for another 4 hours, 100 μl of a 2-propanol solution containing 0.04N hydrochloric acid was added to each well, for terminating the reaction. The generated MTT formazan was sufficiently dissolved with a multi-channel pipette, to measure the absorbance at 595 nm, using a control wavelength of 655 nm. The measured absorbance was analyzed by non-linear regression analysis using a model formula by the MTT method, to calculate the concentration at which the cell growth was inhibited by 50% (IC50). The cells used at this test and the culture broths therefor are as shown below. • 1) Cell: A549 (human lung cancer cell, Human Science Foundation) • Culture broth: DMEM (Dulbecco's modified Eagle medium)+10% FBS (fetal bovine serum) • 2) Cell: PC-3 (human prostate cancer cell, ATCC) • Culture broth: DMEM+10% FBS • 3) Cell: AsPC-1 (human pancreas cancer cell, Tokyo University) • Culture broth: DMEM+10% FBS • 4) Cell: HT-1080 (human fibrosarcoma cell, ATCC) • Culture broth: DMEM+10% FBS • 5) Cell: Hepatocyte (normal human liver cell, ACRBI) • Culture broth: CS-C (Cell Systems) • 6) Cell: NHDF (normal human fibroblast cell, Kurabo) • Culture broth: DMEM+10% FBS • 7) Cell: BAE (normal bovine aorta vascular endothelial cell, ACRBI) • Culture broth: CS-C (Cell systems)

[3] = system: PC-3 (human prostate cancer cell); assay: Test about the suppression of cell growth (MTT); assay type: cell-based; settings: 72 h, PC-3, 3 days
Method: as §1

[4] = system: HT-1080 (human fibrosarcoma cell); assay: Test about the suppression of cell growth (MTT); assay type: cell-based; settings: 72 h, HT-1080, 3 days
Method: as §1

[5] = system: A549 (human lung cancer cell); assay: Test about the suppression of cell growth (MTT); assay type: cell-based; settings: 72 h, A549, 3 days
Method: as §1

[6] = system: NHDF (normal human fibroblast cell); assay: Test about the suppression of cell growth (MTT); assay type: cell-based; settings: 72 h, 3 days
Method: as §1

[7] = system: Hepatocyte (normal human liver cell); assay: Test about the suppression of cell growth (MTT); assay type: cell-based; settings: 72 h, 3 days
Method: as §1

[8] = system: BAE (normal bovine aorta vascular endothelial cell); assay: Test about the suppression of cell growth (MTT); assay type: cell-based; settings: Bos taurus, 72 h, 3 days
Method: as §1

[9] = system: collagen-induced arthritis, DBA/1J mouse; assay: Test using collagen arthritis model in mouse; assay type: in vivo; settings: 30 mg/kg, oral daily after secondary sensitization, two weeks after secondary sensitization, non-drug group 5.7
Method: Type II collagen derived from bovine joint was dissolved in 0.1 M acetate saline to 2 mg/ml, with which an equal volume of the complete Freund's adjuvant (manufactured by Iatron) was mixed, to prepare an emulsion. For primary sensitization, the emulsion was injected intracutaneously into the tail root of a 8-week-old male DBA/1J mouse. Twenty-one days thereafter, 0.1 ml of an emulsion prepared in the same manner was intracutaneously injected into the dorsal part of the mouse, for secondary sensitization, to trigger the onset of arthritis. Two weeks after the secondary sensitization, the symptoms of arthritis were visually observed (0: normal; 1: swelling and reddening of finger tips; 2: mild swelling and reddening of parts distal from joints of hands and foots; 3: severe swelling and reddening of parts distal from joints of hands and foots). The symptoms of arthritis were observed individually over the four limbs. The total was defined as the arthritis score of an individual. Further, a test drugs was suspended in 0.5% methyl cellulose and orally given daily after the secondary sensitization.

[10] = system: ICAM-1 expressed on HUVEC; assay: Test about suppression of ICAM-1 expression (enzyme immuno assay, EIA), TNF-α-stimulated HUVEC; assay type: cell-based; settings: Homo sapiens, TNF-α 0.3 ng/ml
Method: Using a culture broth containing serum for vascular endothelial cell (manufactured by Nissui Pharmaceutical Co., Ltd.) as a culture medium, HUVEC (umbilical vein endothelial cell manufactured by Morinaga Bioscience Institute) was cultured in a collagen-treated flask by the routine method.
For carrying out a test about the suppression of ICAM-1 expression with HUVEC, a collagen-treated 96-well plate was used, where HUVEC was added at 1 to 2×10^4 cells/well while the culture medium was added at 100 to 200 μl/well. The cell was cultured in 5% CO2 at 37° C. for 48 to 72 hours. Before adding a test solution, the culture medium (80 μl) was exchanged, to which 10 μl of a test solution preliminarily diluted was then added. The plate was allowed to stand alone in a CO2 incubator. 2 hours later, 10 μl of TNF-α (recombinant human TNF-α, manufactured by Genzyme) was added (to a final concentration of 0.3 ng/ml). The resulting plate was again allowed to stand alone in the CO2 incubator. 16 to 22 hours later, the cell was fixed with 1% p-formaldehyde solution. The cell was rinsed with a phosphate buffer containing Ca^2+ and Mg^2+, which was then treated with an anti-human ICAM-1 antibody (mouse IgG1, manufactured by Kyowa Medics) at ambient temperature for 30 minutes. After the cell was rinsed again with the phosphate buffer, the cell was treated with a peroxide-labeled anti-mouse IgG (H+L) (manufactured by Organon Teknik Corp.) for another 30 minutes. After the cell was again rinsed with the phosphate buffer, the color developed was measured, using a peroxidase chromogenic kit (manufactured by Sumitomo Bakelite Co., Ltd.), to determine ICAM-1 expressed on HUVEC as an expression-inhibiting ratio (%) to a non-drug group to calculate the IC50 value.

**Q.** For C/C(=C\C=C\[C@@H]1[C@H]2[C@H](C)[C@@H](O)[C@H](C)C[C@@H]2C=C[C@@H]1C)C(=O)NCc1cccnc1 [Example 5, N-(Pyridin-3-ylmethyl)-(2E,4E)-5-[(1S,2S,4aR,6R,7S,8S,8aS)-7-hydroxy-2,6,8-trimethyl-1,2,4a,5,6,7,8,8a-octahydronaphthalen-1-yl]-2-methylpenta-2,4-dienamide], which “Suppression ratio (%)” value ([1]; 10 mg/kg) is on record?
**A.** Its value is 27.5* %.

**Q.** And the “Suppression ratio (%)” value ([1]; 30 mg/kg)?
**A.** Its value is 51.5** %.

**Q.** And the IC50 [2]?
**A.** Its IC50 is 113 nM.

**Q.** And the IC50 [3]?
**A.** The IC50 was 67 nM.

**Q.** What about the IC50 [4] of the same compound?
**A.** Its IC50 is 70 nM.

**Q.** And the IC50 [5]?
**A.** The IC50 was 85 nM.

**Q.** And the IC50 [6]?
**A.** The IC50 was 600 nM.

**Q.** What about the IC50 [7] of the same compound?
**A.** Its IC50 is 430 nM.

**Q.** What about the IC50 [8] of the same compound?
**A.** Its IC50 is 9.4 µM.

**Q.** And the Arthritis score [9]?
**A.** Its Arthritis score is 2.1*.

**Q.** And the IC50 [10]?
**A.** The IC50 was 170 nM.
